Data from patent publication US6469028B1, “Synthesis and use of retinoid compounds having negative hormone and/or anatgonist activities” (Allergan, Inc., priority 1995, dated 2002).

Test system: cultured cervical carcinoma cells
Experiment: Example 23: cultured cervical carcinoma cells from a patient biopsy
Format: cell-based
Conditions: 10^−10 to 10^−6 M
Source text: A patient presenting with an advanced cervical carcinoma is first identified. A cervical biopsy is obtained according to methods that will be familiar to one having ordinary skill in the art. Cells from the explanted tumor are propagated in tissue culture according to standard techniques to provide cell numbers sufficient to allow division into three sample groups. Culture conditions described by Agarwal et al. in Cancer Res. 54:2108 (1994) are employed for this purpose. The first group is reserved as a control and receives vehicle alone (ethanol). The second group is treated with the RAR agonist retinoic acid at a concentration of from 10^−10 to 10^−6 M. The third group is treated with AGN 193109 at doses ranging from 10^−10 to 10^−6 M. Cells are fed with fresh growth medium daily and are provided with the retinoids described above as appropriate for each sample group. Cells are counted after three days using an electric cell counter.

SMILES: Cc1ccc(C2=CCC(C)(C)c3ccc(C#Cc4ccc(C(=O)O)cc4)cc32)cc1 [Compound 60, 4-[(5,6-dihydro-5,5-dimethyl-8-(4-methylphenyl)-2-naphthalenyl)ethynyl]benzoic acid]
- cell number after three days: dose-dependent decrease in cell number
